In patent publication US8093226B2, “Cytostatic 7-deazapurine nucleosides” (Institute of Organic Chemistry and Biochemistry of the …, priority 2008, dated 2012):
pIC50: −log10 of the molar value.

Tests used:
Assay type in all cases: cell-based
Du145 = test: Test A: Cytostatic Cell Culture Assay (GI50), Du145; details: Homo sapiens, DU-145, 120 h; Du145 cells, 5 days, SRB; read-out: G150 Prostate Du145
Text: (§1) Test A: Cytostatic Cell Culture Assay (GI50)
(§2) This assay is based on quantification of cell counts by a calorimetric detection of the cell associated proteins. The assay relies on the ability of sulforhodamine B (SRB) to bind to protein components of cells that have been fixed to tissue-culture plates by trichloroacetic acid (TCA). SRB is a bright-pink aminoxanthene dye with two sulfonic groups that bind to basic amino-acid residues under mild acidic conditions, and dissociate under basic conditions. As the binding of SRB is stoichiometric, the amount of dye extracted from stained cells is directly proportional to the cell mass.
(§3) Cell lines: All cell lines are obtained from ATCC (Manassas, Va.). Cultivation media containing Glutanax, and trypsin are purchased from Invitrogen (Carlsbad, Calif.). Doxorubicin, Clofarabine, TCA and SRB are from Sigma-Aldrich (St. Louis, Mo.). Gemcitabine is obtained from Moravek Biochemicals (Brea, Calif.)
(§4) • 1. Trypsinize the sub-confluent cells, count them, and adjust the cell concentrations according to the cell counts listed in Table 1. • 2. Distribute the cells into the 96-well plates in 150 μL of media. Incubate the plates overnight in humidified CO2 incubator at 37° C. • 3. Fix one plate of each cell line with TCA. Discard the cultivation media from the plates by flicking them gently and add 100 μL cold 10% (vol/vol) TCA to each well. Incubate the plates at 4 degree refrigerator for 1 hour. Discard TCA from the plates by flicking them gently. Rinse plates four times in a washing basin containing tap water. Store the plates at room temperature. These plates represent cell counts on day zero. • 4. Prepare a set of medium solutions containing various concentrations of tested compounds by making 5-fold serial dilutions in 96-well plate. Add 50 μL of the diluted compounds per well. Include controls with untreated cells and cells treated with doxorubicin, clofarabine and gemcitabine. • 5. Incubate the plates for 5 days at 37° C. • 6. Fix the plates with TCA. Discard the cultivation media from the plates by flicking them gently and add 100 μL cold 10% (vol/vol) TCA to each well. Incubate the plates at 4 degree refrigerator for 1 hour. Discard TCA from the plates by flicking them gently. Rinse plates four times in a washing basin containing tap water. • 7. Remove excess water by tapping the plates face down, gently on a paper towel. Allow the plates to air-dry at room temperature. • 8. Add 100 μL of 0.057% SRB solution in 1% (vol/vol) acetic acid to each well of the plates fixed with TCA on day zero and five. Leave at room temperature for 30 minutes. • 9. Flick the plates gently to discard SRB. Rinse the plates four times with 1% (vol/vol) Acetic Acid. • 10. Store the plates at 370 incubator to facilitate faster drying. • 11. Once the plates are completely dry, add 200 μL of 10 mM Tris base solution (pH 10.5) to each well. Leave at room temperature for 30 minutes for SRB to solubilize. • 12. Measure the OD at 500 nm in a microplate reader. • 13. Calculate the percentage of cell-growth inhibition using the next formula: % of control cell growth=100×(ODsample−mean ODday0)/(ODneg control−mean ODday0)
(§5) For GI50 determination, plot a dose-response curves between the compound concentration and percent of growth inhibition. GI50 values can be derived by fitting dose-response curves using sigmoidal dose response equation.

Hs578 = test: Test A: Cytostatic Cell Culture Assay (GI50), Hs578; details: 120 h; Hs578 cells, 5 days, SRB; read-out: G150 Breast Hs578
Text: as §1, §2, §3, §4, §5

A549 = test: Test A: Cytostatic Cell Culture Assay (GI50), A549; details: Homo sapiens, 120 h; A549 cells, 5 days, SRB; read-out: G150 Lung A549
Text: as §1, §2, §3, §4, §5

HCT116 = test: Test A: Cytostatic Cell Culture Assay (GI50), HCT116; details: Homo sapiens, HCT-116, 120 h; HCT116 cells, 5 days, SRB; read-out: G150 Colon HCT116
Text: as §1, §2, §3, §4, §5

HCT15 = test: Test A: Cytostatic Cell Culture Assay (GI50), HCT15; details: Homo sapiens, HCT-15, 120 h; HCT15 cells, 5 days, SRB; read-out: G150 Colon HCT15
Text: as §1, §2, §3, §4, §5

PC3 = test: Test A: Cytostatic Cell Culture Assay (GI50), PC3; details: Homo sapiens, PC-3, 120 h; PC3 cells, 5 days, SRB; read-out: G150 Prostate PC3
Text: as §1, §2, §3, §4, §5

NCIH23 = test: Test A: Cytostatic Cell Culture Assay (GI50), NCIH23; details: Homo sapiens, NCI-H23, 120 h; NCIH23 cells, 5 days, SRB; read-out: G150 Lung NCIH23
Text: as §1, §2, §3, §4, §5

Row | Compound | pIC50 (Du145) | pIC50 (A549) | pIC50 (HCT116) | pIC50 (HCT15) | pIC50 (PC3) | pIC50 (Hs578) | pIC50 (NCIH23)
1 | CCc1ncnc2c1ccn2[C@@H]1O[C@H](CO)[C@@H](O)[C@H]1O [Example 1, 4-Ethyl-7-(β-D-ribofuranosyl)-7H-pyrrolo[2,3-d]pyrimidine] | 5.91 | 5.36 | 5.59 |  |  | 5.33 | 
2 | OC[C@H]1O[C@@H](n2ccc3c(-c4nccs4)ncnc32)[C@H](O)[C@@H]1O [Example 8, 7-(β-D-Ribofuranosyl)-4-(thiazol-2-yl)-7H-pyrrolo[2,3-d]pyrimidine] | 7.72 | 6.39 | 6.32 | 6.68 | 6.98 | 6.53 | 5.36
3 | OC[C@H]1O[C@@H](n2ccc3c(-c4cccnc4)ncnc32)[C@H](O)[C@@H]1O [Example 10] | < 4.70 | < 4.70 | < 4.70 | < 4.70 | < 4.70 | < 4.70 | < 4.70
4 | OC[C@H]1O[C@@H](n2ccc3c(-c4ccsc4)ncnc32)[C@H](O)[C@@H]1O [Example 13, 7-(β-D-Ribofuranosyl)-4-(thiophen-3-yl)-7H-pyrrolo[2,3-d]pyrimidine] | 7.49 | 6.20 | 6.67 | 7.01 | 7.04 | 6.15 | 5.37
5 | OC[C@H]1O[C@@H](n2ccc3c(-c4cc[nH]c4)ncnc32)[C@H](O)[C@@H]1O [Example 14, 4-(1H-Pyrrol-3-yl)-7-(β-t-ribofuranosyl)-7H-pyrrolo[2,3-d]pyrimidine] | 7.52 | 6.44 | 6.30 | 6.79 | 6.42 | 6.35 | 5.63
6 | OC[C@H]1O[C@@H](n2ccc3c(-c4ccc[se]4)ncnc32)[C@H](O)[C@@H]1O [Example 15, 7-(O-D-Ribofuranosyl)-4-(selenophen-2-yl)-7H-pyrrolo[2,3-d]pyrimidine] | 7.55 | 6.64 | 6.47 | 8.30 | 7.92 | 6.54 | 5.60
7 | OC[C@H]1O[C@@H](n2ccc3c(-c4cn[nH]c4)ncnc32)[C@H](O)[C@@H]1O [Example 17, 4-(1H-Pyrazol-4-yl)-7-(β-D-ribofuranosyl)-7H-pyrrolo[2,3-d]pyrimidine] | 7.12 | 5.21 | 5.25 | 6.17 | 6.37 | 5.51 | 5.28
8 | OC[C@H]1O[C@@H](n2ccc3c(-c4ccccn4)ncnc32)[C@H](O)[C@@H]1O [Example 18, 4-(Pyridin-2-yl)-7-(β-D-ribofuranosyl)-7H-pyrrolo[2,3-d]pyrimidine] | 6.41 | 5.31 | < 4.70 |  |  | < 4.70 | 
9 | OC[C@H]1O[C@@H](n2cc(F)c3c(-c4ccsc4)ncnc32)[C@H](O)[C@@H]1O [Example 24, 5-Fluoro-7-(β-D-ribofuranosyl)-4-(thiophen-3-yl)-7H-pyrrolo[2,3-d]pyrimidine] | 7.18 | 6.42 | 6.84 | 6.75 | 6.98 | 6.09 | 5.53
10 | OC[C@H]1O[C@@H](n2cc(F)c3c(-c4nccs4)ncnc32)[C@H](O)[C@@H]1O [Example 25, 5-Fluoro-7-(β-D-ribofuranosyl)-4-(thiazol-2-yl)-7H-pyrrolo[2,3-d]pyrimidine] | 7.62 | 6.04 | 5.90 | 6.44 | 6.76 | 6.25 | 5.30

The remaining compounds from weak to strong by pIC50 (Du145), led by results:

Row | pIC50 (Du145) | pIC50 (A549) | pIC50 (HCT116) | pIC50 (HCT15) | pIC50 (PC3) | Compound | pIC50 (Hs578) | pIC50 (NCIH23)
11 | 4.80 | < 4.70 | < 4.70 |  |  | OC[C@H]1O[C@@H](n2ccc3c(Cc4ccccc4)ncnc32)[C@H](O)[C@@H]1O [Example 2, 4-Benzyl-7-(β-D-ribofuranosyl)-7H-pyrrolo[2,3-d]pyrimidine] | < 4.70 | 
12 | 5.88 | < 4.70 | < 4.70 |  |  | COc1ccc(-c2ncnc3c2ccn3[C@@H]2O[C@H](CO)[C@@H](O)[C@H]2O)cc1 [Example 3, 4-(4-Methoxyphenyl)-7-(β-D-ribofuranosyl)-7H-pyrrolo[2,3-d]pyrimidine] | < 4.70 | 
13 | 6.14 | < 4.70 | < 4.70 |  |  | OC[C@H]1O[C@@H](n2ccc3c(-c4ccc(F)cc4)ncnc32)[C@H](O)[C@@H]1O [Example 4, 4-(4-Fluorophenyl)-7-(β-D-ribofuranosyl)-7H-pyrrolo[2,3-d]pyrimidine] | 5.60 | 
14 | 6.20 | < 4.70 | < 4.70 | 5.61 | 5.89 | OC[C@H]1O[C@@H](n2ccc3c(-c4ccc[nH]4)ncnc32)[C@H](O)[C@@H]1O [Example 7, 4-(1H-Pyrrol-2-yl)-7-(β-D-ribofuranosyl)-7H-pyrrolo[2,3-d]pyrimidine] | 5.89 | 5.60
15 | 6.24 | 4.89 | < 4.70 |  |  | OC[C@H]1O[C@@H](n2cc(F)c3c(-c4ccccc4)ncnc32)[C@H](O)[C@@H]1O [Example 19, 5-Fluoro-4-phenyl-7-(β-D-ribofuranosyl)-7H-pyrrolo[2,3-d]pyrimidine] | 4.72 | 
16 | 6.39 | 5.49 | 5.14 | 5.97 | 6.25 | OC[C@H]1O[C@@H](n2ccc3c(-c4ccn[nH]4)ncnc32)[C@H](O)[C@@H]1O [Example 16] | 5.40 | 5.49
17 | 7.03 | 5.59 | 5.43 | 6.65 | 6.71 | OC[C@H]1O[C@@H](n2ccc3c(-c4c[nH]cn4)ncnc32)[C@H](O)[C@@H]1O [Example 9, 4-(1H-Imidazol-4-yl)-7-(β-D-ribofuranosyl)-7H-pyrrolo[2,3-d]pyrimidine] | 5.71 | 5.60
18 | 7.44 | 7.14 | 7.04 | 7.07 | 6.82 | OC[C@H]1O[C@@H](n2ccc3c(-c4ccoc4)ncnc32)[C@H](O)[C@@H]1O [Example 12, 4-(Furan-3-yl)-7-(β-D-ribofuranosyl)-7H-pyrrolo[2,3-d]pyrimidine] | 6.58 | 6.16
19 | 7.52 | 6.60 | 6.35 | 7.52 | 7.28 | OCc1ncnc2c1ccn2[C@@H]1O[C@H](CO)[C@@H](O)[C@H]1O [Example 11, 4-Hydroxymethyl-7-(β-D-ribofuranosyl)-7H-pyrrolo[2,3-d]pyrimidine] | 7.28 | 7.55
20 | 8.05 | 6.71 | 6.34 | 6.95 | 6.75 | OC[C@H]1O[C@@H](n2cc(F)c3c(-c4ccc[nH]4)ncnc32)[C@H](O)[C@@H]1O [Example 22] | 6.50 | 5.58
21 | 8.30 | 7.22 | 7.74 | 7.41 | 7.06 | OC[C@H]1O[C@@H](n2cc(F)c3c(-c4ccoc4)ncnc32)[C@H](O)[C@@H]1O [Example 23, 5-Fluoro-4-(furan-3-yl)-7-(β-D-ribofuranosyl)-7H-pyrrolo[2,3-d]pyrimidine] | 6.75 | 5.33
